Results from patent US12245993B2, “Vitamin K2 microcapsule, preparation method thereof and use thereof in manufacture of medicament for preventing or treating cardiovascular and cerebrovascular diseases” (Xiamen Kingdomway Biotech. Co., Ltd., priority 2020, dated 2025).

Assay: Determination of stability of vitamin K2 microcapsules (light, oxygen, high temperature)
Assay type: physicochemical
Description: (2) Test Method The samples and the reference samples were respectively put into sealed colorless and transparent vials, and placed under the conditions of 4500Lx light intensity irradiation, oxygen filling (25° C.), and stored at 60° C. (incubator) for 15 days, respectively; and they were subjected to sampling on Day 0, Day 5, Day 10, Day 15, and VK2 contents thereof were determined by USP method. The effects of light, oxygen, and temperature conditions on the labeled content (%) of VK2 were investigated.

For Vitamin K2 [Reference sample 4], the “Labeled content of VK2 (%)” value (60° C. (incubator), Day 0) was 100.0%, the “Labeled content of VK2 (%)” value (60° C. (incubator), Day 5) was 96.2% and the “Labeled content of VK2 (%)” value (60° C. (incubator), Day 10) was 94.8%. For the same substance, the “Labeled content of VK2 (%)” value (60° C. (incubator), Day 15) was 90.4%, the “Labeled content of VK2 (%)” value (4500 Lx illumination, Day 0) was 100.0% and the “Labeled content of VK2 (%)” value (4500 Lx illumination, Day 5) was 89.2%. The “Labeled content of VK2 (%)” value (4500 Lx illumination, Day 10) was 74.3%, the “Labeled content of VK2 (%)” value (4500 Lx illumination, Day 15) was 60.3% and the “Labeled content of VK2 (%)” value (Oxygen filling (25° C.), Day 0) was 100.0%. For the same substance, the “Labeled content of VK2 (%)” value (Oxygen filling (25° C.), Day 5) was 93.5%, the “Labeled content of VK2 (%)” value (Oxygen filling (25° C.), Day 10) was 89.4% and the “Labeled content of VK2 (%)” value (Oxygen filling (25° C.), Day 15) was 81.2%.
